Measurements: PMC4798879 (Nature chemical biology, 2016)
One block for each molecule: values may come before it.

Legend:
H2122 cells = test: Compound stability in cell lines, H2122; assay type: in vitro ADME, human
[1] = system: panel of 12 NSCLC cell lines; test: Concentration-response toxicity across panel of NSCLC cell lines; assay type: cell-based, human
H2122 derived tumors = test: Xenograft experiment, H2122 derived tumors in Nod-Scid mice; assay type: in vivo, mouse; conditions: 20 mg/kg once daily
sebocytes = test: In vivo toxicity study, sebocytes in skin of CD-1 mice; parameters: species or system mouse; conditions: 20 mg/kg once a day for two weeks
[2] = Body weight loss in xenograft experiments; assay type: in vivo, mouse; conditions: once daily dosing
H2122 = test: Compound concentration response, viability; assay type: cell-based, human; conditions: read-out: IC50 (concentration that resulted in 50% less viability); H2122 cells
[3] = Pharmacokinetic studies in CD-1 mice; assay type: in vivo, mouse; conditions: 6 and 20 mg/kg

SMILES: CCCCc1ccc(N=CNO)c(C)c1 [HET0016]
- effect on SW208108 metabolism (H2122 cells): inhibited both the loss of SW208108 and the generation of dMe-SW208108
- effect on binding of SW208108 to SCD (SCD (p37 and p30); H2122, 0.1 µM SW208108): inhibited the binding of SW208108 to SCD in a dose dependent fashion
- effect on ability of dMe-SW208108 to bind SCD (SCD (p37 and p30); H2122, 0.1 µM dMe-SW208108): no effect

SMILES: COc1ccc(CCNC(=O)C(=O)Nc2ccc(Cl)cc2)cc1 [SW027951]
- toxicity in eight of the remaining ten cell lines ([1]; 6 μM): insensitive
- toxicity in HCC44 and HCC95 ([1]; HCC44 and HCC95 cell lines): intermediate toxicity

- IC50 (H2122): 95 nM
- pharmacokinetic properties [3]: favorable pharmacokinetic properties
SMILES: O=C(NCCC1CC1)c1ccc(N2CCN(C(=O)c3cc(F)ccc3C(F)(F)F)CC2)nn1 [Xenon-45]
- growth of H2122 tumors (H2122 derived tumors): no efficacy
- sebocytes in hair follicles of skin (sebocytes): devoid of sebocytes
- Weight loss [2]: up to 7%
